Measured values as given in patent US20260325685A1, “Radiopharmaceutical Compositions Targeting Carbonic Anhydrase IX and Uses Thereof” (RayzeBio, Inc., priority 2023, published 2026).
pKd: −log10 of the molar value. Read-outs that look alike come from different tables or passages of the source.

Columns and labels:
[1] = molecular target: T1, human CA-XII (Homo sapiens, UniProt O43570); assay: Surface Plasmon Resonance (SPR) binding kinetics to recombinant human CA-XII (Biacore 8K, single-cycle kinetics, 1:1 binding model)
T1 construct: purchased Creative BioMart CA12-261H
T1 sequence (O43570 25-354): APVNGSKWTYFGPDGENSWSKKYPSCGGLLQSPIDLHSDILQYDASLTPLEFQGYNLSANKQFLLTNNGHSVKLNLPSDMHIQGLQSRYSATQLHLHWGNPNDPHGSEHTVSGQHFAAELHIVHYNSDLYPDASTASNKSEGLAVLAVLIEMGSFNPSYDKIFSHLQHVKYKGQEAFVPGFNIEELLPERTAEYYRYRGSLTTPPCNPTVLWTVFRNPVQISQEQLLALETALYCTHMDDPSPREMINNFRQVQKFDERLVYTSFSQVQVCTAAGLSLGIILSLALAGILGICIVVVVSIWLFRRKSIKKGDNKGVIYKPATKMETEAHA
How it was run: (§1)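 Using captured protein at 1200-1800 RU, we injected compound at 100-0.39 nM in 1% DMSO buffer, pH 7.4, 25° C, then corrected curves for reference and DMSO to obtain rate constants.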

[2] = molecular target: T2, human CA-IX (Homo sapiens, UniProt Q16790); assay: Surface Plasmon Resonance (SPR) binding kinetics to recombinant human CA-IX (Biacore 8K, single-cycle kinetics, 1:1 binding model)
T2 construct: purchased Acro CA9-H82E3
How it was run: as §1

[3] = Chelated Metal: Lu-175, 25° C., pH 7.4, read-out: CAXII KD
[4] = Chelated Metal: Lu-175; SPR, 25° C., pH 7.4; read-out: CAIX KD

Structure (SMILES)	pKd [1, 3]	pKd [2, 4]	also measured
CC(CCCC(=O)N1CCOC[C@H]1C(=O)N[C@@H](CC(=O)N1CCN(C(=O)CCOCCOCCOCCOCCN(CCOCCOCCOCCOCCC(=O)N2CCN(C(=O)C[C@H](NC(=O)[C@@H]3COCCN3C(=O)CCCC(C)(c3ccc(O)cc3)c3ccc(O)cc3)C(N)=O)[C@@H](C(=O)NCCn3cc(C45CC(C(=O)Nc6nnc(S(N)(=O)=O)s6)(C4)C5)nn3)C2)C(=O)CNC(=O)CN2CCN(CC(=O)O)CCN(CC(=O)O)CCN(CC(=O)O)CC2)C[C@@H]1C(=O)NCCn1cc(C23CC(C(=O)Nc4nnc(S(N)(=O)=O)s4)(C2)C3)nn1)C(N)=O)(c1ccc(O)cc1)c1ccc(O)cc1.[Lu+3] [Compound 131.6]	8.60 to 9.00	> 9.00	–
CC(CCCC(=O)N1CCC(C(N)=O)(C(=O)NCC(=O)N2CCN(C(=O)CN3CCN(CC(=O)O)CCN(CC(=O)O)CCN(CC(=O)O)CC3)C[C@H]2C(=O)NCCn2cc(C34CC(c5cn6nc(S(N)(=O)=O)sc6n5)(C3)C4)nn2)CC1)(c1ccc(O)cc1)c1ccc(O)cc1 [Compound 107.53]	–	–	pKd ([1]; Chelated Metal: None, 25° C., pH 7.4, read-out: CAXII KD): 8.00 to 8.60; pKd ([2]; Chelated Metal: None; SPR, 25° C., pH 7.4; read-out: CAIX KD): > 9.00; Ratio (CAXII/CAIX) ([2]; KD ratio CAXII/CAIX; Chelated Metal: None): **** (50 < ****)
NS(=O)(=O)c1nnc(NC(=O)C23CC(c4cn(CCNC(=O)[C@@H]5CN(C(=O)CN6CCN(CC(=O)O)CCN(CC(=O)O)CCN(CC(=O)O)CC6)CCN5C(=O)C[C@H](NC(=O)C[C@H](NCc5ccc(C6CC6)cc5)C(=O)O)C(=O)O)nn4)(C2)C3)s1.[Lu+3] [Compound 109.21]	< 8.00	> 9.00	–
CC(CCCC(=O)N1CCC(C(N)=O)(C(=O)NCC(=O)N2CCN(C(=O)CN3CCN(C(=O)CN4CCN(CC(=O)O)CCN(CC(=O)O)CCN(CC(=O)O)CC4)CC3)C[C@@H]2C(=O)NCCn2cc(C34CC(C(=O)Nc5nnc(S(N)(=O)=O)s5)(C3)C4)nn2)CC1)(c1ccc(O)cc1)c1ccc(O)cc1.[Lu+3] [Compound 129.3]	< 8.00	> 9.00	–
CC(CCC(=O)N[C@@H](CC(=O)N[C@@H](CC(=O)N[C@@H](CCCCn1cc(C23CCC(C(=O)Nc4nnc(S(N)(=O)=O)s4)(CC2)C3)nn1)C(=O)NCC1(C(=O)O)CN(C(=O)CN2CCN(CC(=O)O)CCN(CC(=O)O)CCN(CC(=O)O)CC2)C1)C(=O)O)C(=O)O)(c1ccc(O)cc1)c1ccc(O)cc1.[Lu+3] [Compound 100.19]	> 9.00	> 9.00	–
CC(C)(C)c1ccc(CC(=O)N[C@@H](CC(=O)N[C@@H](CC(=O)N2CCN(C(=O)CN3CCN(CC(=O)O)CCN(CC(=O)O)CCN(CC(=O)O)CC3)C[C@H]2C(=O)NCCn2cc(C34CC(C(=O)Nc5nnc(S(N)(=O)=O)s5)(C3)C4)nn2)C(=O)O)C(=O)O)cc1.[Lu+3] [Compound 109.27]	8.00 to 8.60	8.60 to 9.00	–
CC(CCC(=O)N[C@@H](CC(=O)N[C@@H](CC(=O)N[C@@H](CCCCn1cc(C23CCC(C(=O)Nc4nnc(S(N)(=O)=O)s4)(CC2)C3)nn1)C(=O)N1CC(NC(=O)CN2CCN(CC(=O)O)CCN(CC(=O)O)CCN(CC(=O)O)CC2)C1)C(=O)O)C(=O)O)(c1ccc(O)cc1)c1ccc(O)cc1.[Lu+3] [Compound 100.11]	> 9.00	> 9.00	–
NS(=O)(=O)c1nnc(NC(=O)C23CC(c4cn(CCNC(=O)[C@@H]5CN(C(=O)CN6CCN(CC(=O)O)CCN(CC(=O)O)CCN(CC(=O)O)CC6)CCN5C(=O)CNC(=O)C5(C(=O)O)CCN(C(=O)CC6CC7(CCC7)C6)CC5)nn4)(C2)C3)s1.[Lu+3] [Compound 112.8]	8.00 to 8.60	> 9.00	–
NC(=O)C1(C(=O)NCC(=O)N2CCN(C(=O)CN3CCN(CC(=O)O)CCN(CC(=O)O)CCN(CC(=O)O)CC3)C[C@H]2C(=O)NCCn2cc(C34CC(C(=O)Nc5nnc(S(N)(=O)=O)s5)(C3)C4)nn2)CCN(C(=O)Cn2nc(-c3ccc(O)cc3)c3ccc(O)cc32)CC1.[Lu+3] [Compound 107.37]	< 8.00	< 8.00	–
NS(=O)(=O)c1nnc(NC(=O)C23CC(c4cn(CCNC(=O)[C@@H]5CN(C(=O)CN6CCN(CC(=O)O)CCN(CC(=O)O)CCN(CC(=O)O)CC6)CCN5C(=O)C[C@H](NC(=O)C[C@H](NC(=O)Cn5nc(-c6ccc(O)cc6)c6ccc(O)cc65)C(=O)O)C(=O)O)nn4)(C2)C3)s1.[Lu+3] [Compound 109.34]	8.00 to 8.60	> 9.00	–
CC(CCC(=O)N1CCC[C@H]1C(=O)N[C@@H](CC(=O)N1CCN(C(=O)CN2CCN(CC(=O)O)CCN(CC(=O)O)CCN(CC(=O)O)CC2)C[C@@H]1C(=O)NCCn1cc(C23CC(C(=O)Nc4nnc(S(N)(=O)=O)s4)(C2)C3)nn1)C(=O)O)(c1ccc(O)cc1)c1ccc(O)cc1.[Lu+3] [Compound 108]	–	–	pKd ([1]; read-out: CAXII KD, Chelated Metal: Lu-175, 25° C., pH 7.4): < 8.00; pKd ([2]; read-out: CAIX KD; Chelated Metal: Lu-175; SPR, 25° C., pH 7.4): 8.60 to 9.00
CC(CCC(=O)N[C@@H](CC(=O)N[C@@H](CC(=O)N1CCN(C(=O)CN2CCN(CC(=O)O)CCN(CC(=O)O)CCN(CC(=O)O)CC2)C[C@H]1C(=O)NCCn1nnc(C23CC(C(=O)Nc4nnc(S(N)(=O)=O)s4)(C2)C3)c1C(=O)O)C(=O)O)C(=O)O)(c1ccc(O)cc1)c1ccc(O)cc1.[Lu+3] [Compound 107.60]	8.00 to 8.60	> 9.00	–
